Data taken from patent US11891401B2, “Solid forms of N-(4-fluoro-3-(6-(3-methylpyridin-2-yl)-[1,2,4]triazolo[1,5-a]pyrimidin-2-yl)phenyl)-2,4-dimethyloxazole-5-carboxamide” (NOVARTIS AG, priority 2018, dated 2024).
In brackets after ≈: the same amount, converted by molar mass.

Tests used:
Type in all cases: physicochemical
[1] = Solubility in various media at 25° C. after 24 hours equilibration (UPLC); settings: for final pH of the sample (in parentheses): after 24 hours equilibration
[2] = Solid-state physical stability: form change by XRPD after stress storage; settings: Solid state
Procedure: (§1) Compound I, Compound I fumaric acid co-crystals and amorphous Compound I fumaric acid samples (10 mg) were placed in an open vial at 50° C./75% RH and 80° C./75% RH chamber for one week. A same amount of sample was placed in a closed vial at 50° C. and 80° C. chamber for 1 week. The samples were exposed to 100 k Lux light for 12 h at 25° C. Solids were examined by XRPD for physical stability determination and by UPLC for chemical stability determination. The color of the samples was evaluated by visual observation. Table 5 compares the stability of Compound I and its various solid forms.

[3] = Solid-state chemical stability: degradation products by UPLC/HPLC after stress storage; settings: for DP % (Degradation Product), Bulk (UPLC): Solid state; for DP % (Degradation Product), Amber vial (HPLC) / DP % (Degradation Product), Clear vial (HPLC): Xenon light (approx. 1200 kLuxh)
Procedure: as §1

[4] = Dynamic Vapor Sorption (DVS) moisture absorption / hygroscopicity; settings: for solid form after DVS: after DVS testing; for moisture absorption by DVS: at 90% RH, 25° C.; for hygroscopicity: by DVS
[5] = Crystal form after grinding, compression and wet granulation; settings: compression and wet granulation (water and ethanol)
[6] = 0.01N HCl pH 2.0, 25° C., 24 hours equilibration
[7] = 0.1N HCl pH 1.0, 25° C., 24 hours equilibration
[8] = FaSSIF pH 6.5, 25° C., 24 hours equilibration
[9] = FeSSIF pH 5.8, 25° C., 24 hours equilibration
[10] = SGF pH 2.0, 25° C., 24 hours equilibration
[11] = acetate buffer pH 4.7, 25° C., 24 hours equilibration
[12] = borate buffer pH 10.0, 25° C., 24 hours equilibration
[13] = phosphate buffer pH 6.8, 25° C., 24 hours equilibration
[14] = water, 25° C., 24 hours equilibration
[15] = 1 week 80° C., closed container
[16] = listed as Compound I fumaric acid co-crystals (2:1)
[17] = 1 week 50° C., closed container

solubility [1, 6] [µg/mL]	final pH of the sample (in parentheses) ([1]; 0.01N HCl pH 2.0)	solubility [1, 7] [µg/mL]	final pH of the sample (in parentheses) ([1]; 0.1N HCl pH 1.0)	solubility [1, 8] [µg/mL]	final pH of the sample (in parentheses) ([1]; FaSSIF pH 6.5)	solubility [1, 9] [µg/mL]	final pH of the sample (in parentheses) ([1]; FeSSIF pH 5.8)	solubility [1, 10] [µg/mL]	final pH of the sample (in parentheses) ([1]; SGF pH 2.0)	solubility [1, 11] [µg/mL]	final pH of the sample (in parentheses) ([1]; acetate buffer pH 4.7)	final pH of the sample (in parentheses) ([1]; borate buffer pH 10.0)	final pH of the sample (in parentheses) ([1]; phosphate buffer pH 6.8)	final pH of the sample (in parentheses) ([1]; water)	Bulk (XRPD) [2, 15]	DP % (Degradation Product), Bulk (UPLC) [3, 15] [%]	DP % (Degradation Product), Bulk (UPLC) ([3]; 1 week 80° C./75% r.h.) [%]	DP % (Degradation Product), Amber vial (HPLC) [3] [%]	DP % (Degradation Product), Clear vial (HPLC) [3] [%]	SMILES	also measured
21 (≈ 47.4 µM)	(2.1)	170 (≈ 383 µM)	(1.0)	7 (≈ 15.8 µM)	(5.7)	16 (≈ 36.1 µM)	(5.6)	63 (≈ 142 µM)	(1.9)	2 (≈ 4.51 µM)	(4.6)	(8.1)	(6.5)	(2.9)	no change	1.7	1.7	1.7	1.6	Cc1nc(C)c(C(=O)Nc2ccc(F)c(-c3nc4ncc(-c5ncccc5C)cn4n3)c2)o1 [Form B, N-(4-fluoro-3-(6-(3-methylpyridin-2-yl)-[1,2,4]triazolo[1,5-a]pyrimidin-2-yl)phenyl)-2,4-dimethyloxazole-5-carboxamide]	crystal form after grinding, compression and wet granulation [5]: did not alter the crystal form; stability and solubility (24 h) in aqueous media ([1]; aqueous media, 24 h, versus free form hydrate): comparable to the free form hydrate; solubility compared to the solubility of the free form ([1]; biological fluids SGF, FaSSIF and FeSSIF): significantly better; solubility [1, 12]: 2 µg/mL (≈ 4.51 µM); solubility [1, 13]: 2 µg/mL (≈ 4.51 µM); solubility [1, 14]: 4 µg/mL (≈ 9.02 µM); solid form after DVS [4]: remains the same form; moisture absorption by DVS [4]: 0.3%; hygroscopicity [4]: non-hygroscopic; Bulk (XRPD) [2, 17]: no change; Bulk (XRPD) ([2]; 1 week 50° C./75% r.h.): no change; DP % (Degradation Product), Bulk (UPLC) [3, 17]: 1.8%; DP % (Degradation Product), Bulk (UPLC) ([3]; 1 week 50° C./75% r.h.): 1.7%
–	–	240 (≈ 541 µM)	(1.1)	–	(5.5)	–	(5.5)	46 (≈ 104 µM)	(2.0)	–	(4.4)	–	(6.4)	(2.9)	no change	1.8	1.8	1.8	1.8	Cc1nc(C)c(C(=O)Nc2ccc(F)c(-c3nc4ncc(-c5ncccc5C)cn4n3)c2)o1 [Form C, N-(4-fluoro-3-(6-(3-methylpyridin-2-yl)-[1,2,4]triazolo[1,5-a]pyrimidin-2-yl)phenyl)-2,4-dimethyloxazole-5-carboxamide]	moisture absorption by DVS [4]: approximately 0.6%; hygroscopicity [4]: slightly hygroscopic; Bulk (XRPD) [2, 17]: no change; Bulk (XRPD) ([2]; 1 week 50° C./75% r.h.): no change; DP % (Degradation Product), Bulk (UPLC) [3, 17]: 1.8%; DP % (Degradation Product), Bulk (UPLC) ([3]; 1 week 50° C./75% r.h.): 1.7%

More lines, now with the values behind:

SMILES	solubility [1, 6] [µg/mL]	final pH of the sample (in parentheses) ([1]; 0.01N HCl pH 2.0)	solubility [1, 7] [µg/mL]	final pH of the sample (in parentheses) ([1]; 0.1N HCl pH 1.0)	solubility [1, 8] [µg/mL]	final pH of the sample (in parentheses) ([1]; FaSSIF pH 6.5)	solubility [1, 9] [µg/mL]	final pH of the sample (in parentheses) ([1]; FeSSIF pH 5.8)	solubility [1, 10] [µg/mL]	final pH of the sample (in parentheses) ([1]; SGF pH 2.0)	solubility [1, 11] [µg/mL]	final pH of the sample (in parentheses) ([1]; acetate buffer pH 4.7)	final pH of the sample (in parentheses) ([1]; borate buffer pH 10.0)	final pH of the sample (in parentheses) ([1]; phosphate buffer pH 6.8)	final pH of the sample (in parentheses) ([1]; water)	Bulk (XRPD) [2, 15]	DP % (Degradation Product), Bulk (UPLC) [3, 15] [%]	DP % (Degradation Product), Bulk (UPLC) ([3]; 1 week 80° C./75% r.h.) [%]	DP % (Degradation Product), Amber vial (HPLC) [3] [%]	DP % (Degradation Product), Clear vial (HPLC) [3] [%]	also measured
Cc1nc(C)c(C(=O)Nc2ccc(F)c(-c3nc4ncc(-c5ncccc5C)cn4n3)c2)o1 [Amorphous Compound I Fumaric Acid (1:1), N-(4-fluoro-3-(6-(3-methylpyridin-2-yl)-[1,2,4]triazolo[1,5-a]pyrimidin-2-yl)phenyl)-2,4-dimethyloxazole-5-carboxamide]	36 (≈ 81.2 µM)	(2.1)	350 (≈ 789 µM)	(1.1)	7 (≈ 15.8 µM)	(5.8)	18 (≈ 40.6 µM)	(5.6)	55 (≈ 124 µM)	(2.2)	<0.1	(4.6)	(9.6)	(6.6)	(3.0)	no change	2.6	2.7	2.8	4.5	solubility [1, 12]: <0.1 µg/mL; solubility [1, 13]: <0.1 µg/mL; solubility [1, 14]: 0.2 µg/mL (≈ 0.451 µM)
Cc1nc(C)c(C(=O)Nc2ccc(F)c(-c3nc4ncc(-c5ncccc5C)cn4n3)c2)o1 [Amorphous Compound I Fumaric Acid (2:1), N-(4-fluoro-3-(6-(3-methylpyridin-2-yl)-[1,2,4]triazolo[1,5-a]pyrimidin-2-yl)phenyl)-2,4-dimethyloxazole-5-carboxamide]	9 (≈ 20.3 µM)	(2.0)	180 (≈ 406 µM)	(1.1)	3 (≈ 6.77 µM)	(6.1)	13 (≈ 29.3 µM)	(5.7)	25 (≈ 56.4 µM)	(2.2)	<0.1	(4.7)	(9,7)	(6.7)	(3.2)	no change	1.7	1.6	1.5	10.6	solubility [1, 12]: <0.1 µg/mL; solubility [1, 13]: <0.1 µg/mL; solubility [1, 14]: <0.1 µg/mL
Cc1nc(C)c(C(=O)Nc2ccc(F)c(-c3nc4ncc(-c5ncccc5C)cn4n3)c2)o1 [Compound I Fumaric Acid Co-crystal (2:1), N-(4-fluoro-3-(6-(3-methylpyridin-2-yl)-[1,2,4]triazolo[1,5-a]pyrimidin-2-yl)phenyl)-2,4-dimethyloxazole-5-carboxamide]	5	(1.9)	160	(0.8)	–	(5.9)	–	(5.5)	30	(1.9)	–	(4.5)	(9.6)	(6.6)	(3.1)	no change	1.2	1.2	1.2	1.2	solubility compared to the solubility of the free form ([1]; FeSSIF): significantly better; solubility at 24 h ([1]; thermodynamic from solid, FeSSIF pH 5.8, 25° C., 24 hours equilibration): 17 µg/mL; solid form after DVS [4, 16]: remains the same form; moisture absorption by DVS [4]: 0.12%; moisture absorption by DVS [4, 16]: 0.12%; hygroscopicity [4]: non-hygroscopic; hygroscopicity [4, 16]: non-hygroscopic; Bulk (XRPD) [2, 17]: no change; Bulk (XRPD) ([2]; 1 week 50° C./75% r.h.): no change; DP % (Degradation Product), Bulk (UPLC) [3, 17]: 1.2%; DP % (Degradation Product), Bulk (UPLC) ([3]; 1 week 50° C./75% r.h.): 1.2%
